Measurements: patent publication US20220339110A1, “FAST CONSOLIDATING COMPOUNDS” (Universität Innsbruck, priority 2019, published 2022)

Assays:
Type in all cases: physicochemical
[1] = Moulding process: time to stable tablets (consolidation/solidification time) and liquid amount after wetting the powder; settings: for consolidation/solidification time (in words): wetted with water
Description: α-Lactose anhydrate was transferred into wells of a moulding form and wetted with pure water and water/alcohol mixtures, as shown in FIG. 2. Pure water and aqueous EtOH solutions, 25% (v/v) and 50% EtOH (v/v), ratio by volume, were used as solvents. These experiments were performed to measure the time needed for the formation of stable tablets, to determine the optimal amount of solvent, and to determine the optimal water:alcohol ratio in water/alcohol mixtures.
The solidification time (time until the tablets show sufficient hardness for handling) after addition of the solvent was determined using pure water and an aqueous glucose solution. It was observed that the solidification time of anhydrous glucose is much shorter when glucose solutions are applied instead of pure water. Glucose anhydrate solidifies after 10-15 min when water is used but hardens within 2-6 minutes after the application of glucose solutions. The amount of glucose in the solution is less critical for the solidification time, a concentration of 25 wt % is sufficient.
The moulding form tests were carried out with two different solvents: a) water and b) 50% EtOH (v/v) solution.
In a first experiment, tablets with amorphous Ca-L-Lactate (L-CaLac) using pure water were produced.
Wetting partly anhydrous MgSO4 (7 wt % water content) with pure water results in solid tablets. After 5 minutes the tablets can be unbaged from the moulding form. The wettability is not as good as for the α-lactose powders. About 50-60 μl water were added per 100 mg powder. By using a saturated aqueous solution of MgSO4 the hardening time could be halved (2-3 minutes).

[2] = Drug load capacity test of moulded tablets with glass beads (Spheriglass 2429); settings: for Consolidation time / Consolidation time (in words): loaded with glass beads; for time to solid/stable tablets (in words): mixture with Spheriglass 2429 (50 wt % where stated), water
Text: As model substance for the drug load capacity test, Spheriglass 2429 (glass beads, Potters Europe) was used, because there are no interactions between the glass beads and lactose to exclude other effects. Spheriglass 2429 has a particle size distribution of 53-106 μm. It was mixed with refluxed and sieved Spherolac 100 anhydrate (Spherolac 100 AH) (<250 μm) in a ratio of 30 and 60 wt %. […] The higher the amount of Spheriglass 2429 the less binder solution is needed, because of the decreasing amounts of water binding excipients.
A mixture of 50 wt % anhydrous glucose and 50 wt % Spheriglass 2429 was wetted with a 25 wt % glucose solution and pure water. The aim of this experiment was to investigate if the consolidation time is slowed down by loading a slower solidifying hydrate (in comparison to α-Lactose anhydrate) with a non-matrix-forming substance. […] The advantages of the use of glucose are rather seen as additive to other fast consolidating excipients to improve or modify the consolidation process, its rate, and the properties of the product.

[3] = Permanent stability of Na2SO4 tablets with binder in the wetting liquid
Description: Attempts were undertaken to ensure the permanent stability of the Na2SO4 (decahydrate) tablets by adding binder polymers to the wetting liquid. Amounts of 5 wt % and 7.5 wt % aqueous PVA 388 solutions were tested. […] The tests show the possibility of a new approach: rapid solidification by hydrate formation and permanent stability through additional binders.

[4] = Mercury intrusion porosimetry of lactose tablets
Description: The porosity, ratio between the sample void volumes and its external volume, of a tablet should be high if a fast disintegration is desired (e.g. for sublingual tablets). Porosity was measured using mercury porosimetry. For a complete mercury intrusion porosimetry (MIP) measurement, two different porosimeter types are needed—a low-pressure porosimeter (LP-MIP) and a high-pressure porosimeter (HP-MIP). As the LP-MIP, Pascal 140 (Thermo Fisher Scientific, I-Milano) was used and the Porosimeter 2000 (Carlo Erba, I-Milano) as the HP-MIP. Pure Spherolac 100 was used for the experiments.

[5] = Tablet hardness, three-point-break tester; settings: 200 mg
Description: The tablet hardness was measured with a three-point-break tester by Charles Ischi AG (HC 6.2 50 N).

[6] = Mercury intrusion porosimetry of lactose tablets; settings: 3D-powder printed tablet; calculated value
[7] = Disintegration time of lactose tablets
Text: Mercury porosimetry of the 3D-powder printed tablet indicated a porosity of 63.8% and an average pore radius of 48 Micron. […] Also the tablets produced by the molding process show porosities around 50% whereas those of the pressed tablets are much smaller. The high porosity guarantees a fast intrusion of fluids into the tablet and is thus an important prerequisite of a fast disintegration.

[8] = 50 wt % Spheriglass 2429, 25 wt % glucose solution and pure water
[9] = production method: 3D-powder printing
[10] = production method: moulding process
[11] = 5 wt % PVA 388 in 50% EtOH (v/v)
[12] = 7.5 wt % PVA 388 in 50% EtOH (v/v)
[13] = 10 wt % PVA 388 in 50% EtOH (v/v)
[14] = production method: compaction 10 kN
[15] = production method: compaction 30 kN

C[C@H](O)C(=O)[O-].C[C@H](O)C(=O)[O-].[Ca+2] [Ca-Lactate anhydrate, anhydrous Ca-Lactate]
Consolidation time ([1]; solution: water): 1 to 2 min | consolidation/solidification time (in words) [1]: within one minute | solidification time ([2]; 50 wt % Spheriglass 2429, 50% EtOH (v/v) binder solution): ca. 45 min | Consolidation time ([2]; solvent H2O): 1 to 2 min

O.O=S(=O)([O-])[O-].O=S(=O)([O-])[O-].[Ca+2].[Ca+2] [Calcium sulphate hemihydrate, reference compound]
Consolidation time ([1]; solution: water): ca. 35 min

OC[C@H]1OC(O)[C@H](O)[C@@H](O)[C@@H]1O (some centres unmarked) [Glucose anhydrate]
solidification time ([1]; glucose solutions applied): 2 to 6 min | Consolidation time ([1]; solution: aqueous glucose solution (25-50 wt %)): 2 to 6 min | Consolidation time ([1]; solution: water): ca. 10 min | solidification time ([1]; water): 10 to 15 min | state of tablets after 10 minutes [2, 8]: still rather soft | time after which tablets could be removed (in words) [2, 8]: After four minutes | Consolidation time ([2]; solvent H2O): >10 min

O=C([O-])CC(O)(CC(=O)[O-])C(=O)[O-].O=C([O-])CC(O)(CC(=O)[O-])C(=O)[O-].[Mg+2].[Mg+2].[Mg+2] [Mg Citrate anhydrate, anhydrous Mg Citrate]
time to stable tablets ([1]; pure water, with seed crystals of the dodecahydrate (about 2%)): 1 to 4 min | Consolidation time ([1]; solution: water): 1 to 4 min | solidification time ([1]; without seed crystals): about 4 min | time to stable tablets ([2]; 50% wt Spheriglass 2429, wetting with water): ≥ 10 min | Consolidation time ([2]; solvent H2O): >10 min

O=S(=O)([O-])[O-].[Mg+2] [MgSO4 anhydrate]
Consolidation time (in words) ([1]; solution: water): few seconds | consolidation/solidification time (in words) [1]: within a few seconds | Consolidation time (in words) ([2]; solvent H2O): few seconds | time to solid/stable tablets (in words) [2]: after a few seconds

O=S(=O)([O-])[O-].[Na+].[Na+] [Na2SO4 anhydrate]
Consolidation time (in words) ([1]; 50% EtOH (v/v) solution): within one minute | Consolidation time (in words) ([1]; solution: water): few seconds | consolidation/solidification time (in words) [1]: within a few seconds | Consolidation time (in words) ([2]; solvent H2O): few seconds | time to solid/stable tablets (in words) [2]: within a few seconds | mechanical stability of tablets (in words) ([3]; 7.5 wt % aqueous PVA 388 solution, after drying two and a half days at 22° C. or 40° C.): mechanically stable tablets | mechanical stability of tablets the next day (in words) ([3]; wetted with 5 wt % aqueous PVA 388 solution): still could be easily crushed

OC[C@H]1O[C@H](OC[C@H]2O[C@H](O[C@]3(CO)O[C@H](CO)[C@@H](O)[C@@H]3O)[C@H](O)[C@@H](O)[C@@H]2O)[C@H](O)[C@@H](O)[C@H]1O [Raffinose anhydrate]
Consolidation time (in words) ([1]; 50% EtOH (v/v) solution): about four to five minutes | Consolidation time (in words) ([1]; solution: water): few seconds | consolidation/solidification time (in words) [1]: within a few seconds | Consolidation time ([2]; solvent H2O): 2 min | Consolidation time ([2]; solvent H2O/EtOH 1:1): 4 min | time to solid/stable tablets (in words) [2]: Two minutes | time after which tablets could be removed ([2]; with Spheriglass, 50% EtOH (v/v) solution): 2 to 4 min

OC[C@H]1O[C@@H](O[C@H]2[C@H](O)[C@@H](O)[C@@H](O)O[C@@H]2CO)[C@H](O)[C@@H](O)[C@H]1O [Spherolac 100 AH]
Average Pore Radius ([4]; 3D-powder printed tablet): 48 Micron | porosity (mercury porosimetry) ([4]; 3D-powder printed tablet): 63.8% | Average Pore Radius [4, 9]: 48 μm | Porosity [4, 9]: 63.8% | Average Pore Radius [4, 10]: 2.4 μm | Porosity [4, 10]: 49% | Porosity ([4]; tablets produced by the molding process): around 50% | Average hardness of tablet [5, 11]: 10.45 N | Average hardness of tablet ([5]; 5 wt % aq. PVA 388): 8.65 N | Average hardness of tablet [5, 12]: 16.75 N | Average hardness of tablet ([5]; 7.5 wt % aq. PVA 388): 12.2 N | Average hardness of tablet [5, 13]: 20.2 N | Average hardness of tablet ([5]; 10 wt % aq. PVA 388): 14.75 N | Average hardness of tablet ([5]; binder solution: water): 9.4 N | time to stable tablets after wetting (in words) ([2]; mixed with Spheriglass 2429 at 30 and 60 wt %): within a few seconds | calculated porosity [6]: 71.3% | disintegration time (in words) ([7]; printed tablets): few seconds

O.OC[C@H]1O[C@@H](O[C@H]2[C@H](O)[C@@H](O)[C@@H](O)O[C@@H]2CO)[C@H](O)[C@@H](O)[C@H]1O [Spherolac 100 MH, α-Lactose monohydrate]
Average Pore Radius [4, 14]: 0.6 μm | Porosity [4, 14]: 12% | Average Pore Radius [4, 15]: 0.2 μm | Porosity [4, 15]: 5% | Average hardness of tablet [5, 11]: 5.85 N | Average hardness of tablet [5, 12]: 8.1 N | Average hardness of tablet [5, 13]: 13.1 N | disintegration time (in words) ([7]; tablets produced at compaction pressure of 30 kN): several minutes

OC[C@H]1O[C@@H](O[C@H]2[C@H](O)[C@@H](O)[C@@H](O)O[C@@H]2CO)[C@H](O)[C@@H](O)[C@H]1O [Stable α-Lactose anhydrate]
Consolidation time ([1]; solution: water): 0.083 to 0.167 min | time to stable tablets ([1]; water/alcohol mixtures (25% and 50% EtOH v/v)): more than 10 seconds | time to stable tablets ([1]; wetting with pure water): 0.083 to 0.167 min | Consolidation time (in words) ([2]; solvent H2O): few seconds | Consolidation time (in words) ([2]; solvent H2O/EtOH 1:1): few seconds
